Patent US20250387419A1, “PARP INHIBITOR-RESISTANT PATIENT TREATED WITH TH-302” (ASCENTAWITS PHARMACEUTICALS, LTD., priority 2021, published 2025)
Entries after “also recorded” stand apart in the source; their conditions may differ.

Assays:
[1] = Safety (body weight) in Capan-1 CDX model (3.1); type: in vivo; parameters: Body weight: unit: g; settings: for Body weight / Body weight change percentage: olaparib 100 mg/kg p.o. QD×30, TH-302 75 mg/kg i.v. QW×3
Procedure: Each nude female BALB/c mouse was subcutaneously inoculated at a lower portion of the right back with 5×10^5 Capan-1 cells resuspended in a 1:1 mixture of PBS and matrigel (0.1 ml per mouse). A total of 64 female mice were inoculated. The inoculation was conducted on Jun. […] The test drug olaparib group was orally and intragastrically administered, once daily for a total of 30 days. Efficacy was evaluated based on relative tumor growth inhibition (TGI) rates (%), and safety was evaluated based on body weight changes and deaths of the animals.

[2] = Safety (body weight) in LU6429 PDX model; type: in vivo, mouse
Procedure: (§1) Protocol: Nude female Balb/c mice were subcutaneously inoculated with HuPrime® lung cancer LU6429 tumor tissue, establishing a human lung cancer subcutaneous xenograft tumor model. The mice were divided into 6 groups, 6 in each group: 50 mg/kg of the test drug olaparib as a monotherapy (Group 02); 80 mg/kg TH-302 as a monotherapy (Group 03); 40 mg/kg TH-302 as a monotherapy (Group 04); 20 mg/kg TH-302 as a monotherapy (Group 05); 40 mg/kg TH-302 in combination therapy with 50 mg/kg olaparib (Group 06); and a glucose injection solution as a vehicle control (Group 01). The vehicle control group and the TH-302 treatment groups were all administered through tail vein, once weekly for a total of 3 weeks. Olaparib was intragastrically administered once daily for totally 28 days. Routes of administration, doses and regimens for the HuPrime® lung cancer LU6429 animal model are specifically summarized in Table 16.
Tumor growth of the treatment and control groups on different days in the experiment were recorded and shown in Table 17, and corresponding tumor volume growth curves of the mice in respective groups are shown in FIG. 9. Efficacy evaluation was carried out based on relative tumor proliferation rates and relative tumor growth inhibition rates, and the results of efficacy analysis are summarized in Table 18. Body weight changes of the treatment and control groups after administration were recorded to investigate safety of the groups in the HuPrime® lung cancer LU6429 subcutaneous model. Body weight change rates of the mice on Day 25 are shown in Table 19, and curves showing body weights of the treatment groups over time are plotted in FIG. 10.

[3] = Safety (body weight) in BL3325 PDX model; type: in vivo, mouse
Procedure: as §1, with “bladder” for “lung”, “BL3325” for “LU6429”, “30” for “28”, “20.” for “16.”
Tumor growth of the treatment and control groups on different days in the experiment were recorded and shown in Table 21, and corresponding tumor volume growth curves of the mice in respective groups are shown in FIG. 11. Efficacy evaluation was carried out based on relative tumor proliferation rates and relative tumor growth inhibition rates, and the results of efficacy analysis are summarized in Table 22. Body weight changes of the treatment and control groups after administration were recorded to investigate safety of the groups in the HuPrime® bladder cancer BL3325 subcutaneous model. Body weight change rates of the mice on Day 35 are shown in Table 23, and curves showing body weights of the treatment groups over time are plotted in FIG. 12.

[4] = Group 3: 80 mg/kg i.v. QW×3, Day 0
[5] = Group 3: 80 mg/kg i.v. QW×3, Day 25
[6] = Group 4: 40 mg/kg i.v. QW×3, Day 0
[7] = Group 4: 40 mg/kg i.v. QW×3, Day 25
[8] = Group 5: 20 mg/kg i.v. QW×3, Day 0
[9] = Group 5: 20 mg/kg i.v. QW×3, Day 25
[10] = Group 3: 80 mg/kg i.v. QW×3, Day 35
[11] = Group 4: 40 mg/kg i.v. QW×3, Day 35
[12] = Group 5: 20 mg/kg i.v. QW×3, Day 35

## Cn1c(COP(=O)(NCCBr)NCCBr)cnc1[N+](=O)[O-] [TH-302, evofosfamide]
[1]; Day 5
  Body weight: 22.7
  Body weight change percentage: 0.00%
[1]; Day 7
  Body weight: 22.0
  Body weight change percentage: −3.01%
[1]; Day 9
  Body weight: 22.7
  Body weight change percentage: 0.18%
[1]; Day 12
  Body weight: 23.4
  Body weight change percentage: 2.90%
[1]; Day 14
  Body weight: 23.6
  Body weight change percentage: 3.78%
[1]; Day 16
  Body weight: 23.6
  Body weight change percentage: 4.07%
[1]; Day 19
  Body weight: 23.8
  Body weight change percentage: 5.01%
[1]; Day 21
  Body weight: 23.7
  Body weight change percentage: 4.49%
[1]; Day 23
  Body weight: 23.8
  Body weight change percentage: 4.78%
[1]; Day 26
  Body weight: 23.3
  Body weight change percentage: 2.63%
[1]; Day 28
  Body weight: 24.1
  Body weight change percentage: 6.22%
[1]; Day 30
  Body weight: 24.3
  Body weight change percentage: 6.96%
[1]; Day 33
  Body weight: 24.7
  Body weight change percentage: 8.63%
[1]; Day 35
  Body weight: 24.7
  Body weight change percentage: 8.65%
[1]; olaparib 100 mg/kg, TH-302 75 mg/kg, combination 100 + 75 mg/kg
  Body weight loss / tolerance: No significant body weight losses; also recorded: good tolerance
[2]; [4]
  Average Body Weight g (x ± S): 21.5 ± 0.3 g
[2]; [5]
  Average Body Weight g (x ± S): 23.2 ± 0.2 g
  Body Weight Change Rate (%): 7.94% ± 0.76%
[2]; [6]
  Average Body Weight g (x ± S): 21.6 ± 0.2 g
[2]; [7]
  Average Body Weight g (x ± S): 23.7 ± 0.4 g
  Body Weight Change Rate (%): 10.01% ± 1.19%
[2]; [8]
  Average Body Weight g (x ± S): 20.8 ± 0.2 g
[2]; [9]
  Average Body Weight g (x ± S): 23.2 ± 0.4 g
  Body Weight Change Rate (%): 11.72% ± 1.73%
[3]; [4]
  Average Body Weight g (x ± S): 21.7 ± 0.4 g
[3]; [10]
  Average Body Weight g (x ± S): 23.8 ± 0.6 g
  Body Weight Change Rate (%): 9.46% ± 0.99%
[3]; [6]
  Average Body Weight g (x ± S): 21.5 ± 0.3 g
[3]; [11]
  Average Body Weight g (x ± S): 23.2 ± 0.2 g
  Body Weight Change Rate (%): 7.88% ± 1.16%
[3]; [8]
  Average Body Weight g (x ± S): 21.6 ± 0.3 g
[3]; [12]
  Average Body Weight g (x ± S): 23.0 ± 0.5 g
  Body Weight Change Rate (%): 6.30% ± 1.07%
